# Laboratory results reported in patent publication US20220071996A1, “ORAL FORMULATIONS OF BRANAPLAM” (NOVARTIS AG, priority 2018, published 2022).
# Experiments:
# [1] = measured pKas of branaplam; assay type: physicochemical; conditions: acid
# [2] = measured log P of branaplam; assay type: physicochemical
# [3] = pH-dependent stability and compatibility with preservatives; assay type: physicochemical
# [4] = system: infants with Type I Spinal Muscular Atrophy; assay: open-label first-in-human proof of concept study of oral branaplam; assay type: in vivo
# Method: Clinical Trial: An Open-Label Multi-Part First-In-Human Proof of Concept Study of Oral Branaplam in Infants with Type I Spinal Muscular Atrophy. • Part 1: The aim of part one of this study was to determine the safety and tolerability of ascending weekly doses and to estimate the maximum tolerated dose (MTD) of oral/enteral branaplam in infants with Type 1 SMA. All patients had exactly 2 copies of the SMN2 gene. • In part one of the study, patients were dosed once weekly with branaplam. The branaplam doses were escalated in subsequent cohorts until MTD was determined or when PK results confirmed that the MTD could not be reached due to a potential pharmacokinetic exposure plateau at higher doses. A decision to dose escalate the next cohort was made after safety data had been collected for 14 days following the first dose. Patients completing 13 weeks of treatment were considered to have completed the study. The starting dose was 6 mg/m^2 (approximately 0.3125 mg/kg). Subsequent doses were 12 mg/m^2, 24 mg/m^2, 48 mg/m^2 and 60 mg/m^2 (approximately 0.625 mg/kg, 1.25 mg/kg, 2.5 mg/kg and 3.125 mg/kg, respectively). Each cohort had 2-3 patients. All doses are of branaplam in free form. 14 patients were enrolled in Part 1; 13 patients were exposed to branaplam. The duration of exposure ranged from 4-33 months, 7 patients remain in the study. Six of the 7 patients are receiving 60 mg/m^2, 1 patient is receiving 48 mg/m^2.
# Preliminary Safety Results • AEs/SAEs: 455 AEs were reported in the 13 patients; the vast majority were attributed to the underlying disease. Seventy-nine SAEs occurred associated with 59 hospitalizations of which 39 of the 59 hospitalizations were for respiratory events or infections. • Deaths: A total of five patients have died, all from ventilatory failure due to their underlying disease.
# Part 2 of the study will enroll patients into 2 cohorts: cohort 1 at a 0.625 mg/kg dose and cohort 2 at a 2.5 mg/kg dose. The selected dose levels of 0.625 mg/kg and 2.5 mg/kg are based on all safety data from Part 1, as well as, all data from chronic juvenile toxicity studies available at the time of initiation of Part 2. Six to 10 patients will be enrolled in cohorts 1 and 2. A total of a minimum of 12 and maximum of 20 patients will be enrolled and treated for 52 weeks. • Starting dose: The dose of 0.625 mg/kg (corresponding to 12 mg/m^2) is chosen as a starting dose in Part 2 based on safety and preliminary efficacy data collected in Part 1 of the study. Indeed, following an USM treatment with branaplam continued but at a reduced dose of 6 mg/m^2 (0.3125 mg/kg) for all patients who had completed the initial 13 weeks of treatment. This dose was predicted to be efficacious based upon the preliminary clinical (CHOP INTEND) response of patients in Cohort 1. […] For that reason and also given the preliminary efficacy data collected in patients treated with branaplam at 12 mg/m^2 (0.625 mg/kg) it was decided to take this dose as a starting dose in Part 2. • Second dose: The dose of 2.5 mg/kg (corresponding to 48 mg/m^2) is selected as the second dose in Part 2 being 4-fold higher than the starting dose of 0.625 mg/kg (corresponding to 12 mg/m^2). The difference between 0.625 mg/kg and 2.5 mg/kg is considered to be sufficient to ensure appropriate separation in terms of systemic branaplam exposure and potentially also of efficacy endpoints.
# juvenile dog = assay: 52-week chronic juvenile dog study; assay type: in vivo
structure (smiles),measurement,setting,value
"CC1(C)CC(Oc2ccc(-c3ccc(-c4cn[nH]c4)cc3O)nn2)CC(C)(C)N1 [branaplam, 5-(1H-pyrazol-4-yl)-2-(6-((2,2,6,6-tetramethylpiperidin-4-yl)oxy)pyridazin-3-yl)phenol]",pKa,[1],11.5
same,logP,[2],2.6
same,pH-dependent stability,[3],poor stability under pH 4
same,compatibility with potassium sorbate,[3]; preservative potassium sorbate,incompatibility with potassium sorbate
same,decrease of CHOP INTEND scores,[4]; 13 weeks of treatment,no significant decrease was observed in any patient
same,Deaths (patients),[4]; all from ventilatory failure due to underlying disease,five
same,AEs reported,"[4]; human, in vivo",455
same,hospitalizations associated with SAEs,"[4]; human, in vivo",59
same,hospitalizations for respiratory events or infections,"[4]; human, in vivo",39
same,Clinical status,[4]; in vivo,do not follow the normal disease course for Type 1 SMA patients
same,SAEs,[4]; in vivo,Seventy-nine
same,patients who reached a CHOP INTEND score of >36,[4]; in vivo,Eight
same,patients without feeding support after more than one year of treatment,[4]; in vivo,six
same,patients without feeding support after more than two years of treatment,[4]; in vivo,five
same,safety events following dose reduction,[4]; in vivo,"decrease of motor skills, generalized motor weakness and increased respiratory muscle weakness"
same,treated patients without feeding support at around 8 months of age,[4]; in vivo,Ten
same,dose limiting toxicity,"[4]; in vivo, po",No dose limiting toxicity was observed
same,Death or permanent ventilation endpoint,[4]; natural history median age 13.5 months,majority of treated patients have not met this endpoint
same,HINE Section 2: patients who achieved independent sitting,[4]; of the 11 patients evaluated,one
same,patients with progressive and substantial increase of CHOP INTEND scores,"[4]; po, 2184 h",7
same,patients without any ventilatory support with BiPAP,[4]; treated for more than two years,Four
same,nerve findings,juvenile dog,findings of nerve degeneration
